From patent publication US8283367B2, “Proteasome inhibitors and methods of using the same” (Cephalon, Inc., priority 2005, dated 2012) come the findings set out here.

Molecule `CC(C)C[C@H](NC(=O)[C@@H](NC(=O)c1cncc(-c2ccccc2)c1)[C@@H](C)O)B1O[C@@H]2C[C@@H]3C[C@@H](C3(C)C)[C@]2(C)O1` [H.2.6, 5-Phenyl-pyridine-3-carboxamide, N-[(1S,2R)-1-[[[(1R)-1-[(3aS,4S,6S,7aR)-hexahydro-3a,5,5-trimethyl-4,6-methano-1,3,2-benzodioxaborol-2-yl]-3-methylbutyl]amino]carbonyl]-2-hydroxypropyl]] registered a melting point of 135 to 140 °C.
For `CC(C)C[C@H](NC(=O)[C@@H](NC(=O)c1ccc(-c2ccccc2)cn1)[C@@H](C)O)B(O)O` [K.2.7, Boronic acid, [(1R)-1-[[(2S,3R)-3-hydroxy-2-[(5-phenyl-pyridine-2-carbonyl)amino]-1-oxobutyl]amino]-3-methylbutyl]] the value was 190 to 195 °C; for `CC(C)C[C@H](NC(=O)[C@@H](NC(=O)c1cc(-c2ccccc2)n[nH]1)[C@@H](C)O)B(O)O` [K.2.13, Boronic acid, [(1R)-1-[[(2S,3R)-3-hydroxy-2-[(5-phenyl-2H-pyrazole-3-carbonyl)amino]-1-oxobutyl]amino]-3-methylbutyl]], 232 to 236 °C; for `Cc1ccc(C(=O)NC[C@H](NC(=O)c2cccnc2)C(=O)N[C@@H](CC(C)C)B(O)O)cc1` [L.2.4, Boronic acid, [(1R)-1-[[(2 S)-3-[(4-methylbenzoyl)amino]-2-[(pyridine-3-carbonyl)amino]-1-oxopropyl]amino]-3-methyibutyl]], 220 to 222 °C.
For `Cc1ccc(C(=O)NC[C@H](NC(=O)c2ccc3ccccc3n2)C(=O)N[C@@H](CC(C)C)B(O)O)cc1` [L.2.5, Boronic acid, [(1R)-1-[[(2 S)-3-[(4-methylbenzoyl)amino]-2-[(quinoline-2-carbonyl)amino]-1-oxopropyl]amino]-3-methylbutyl]] the value was 235 to 237 °C.
For the molecule `Cc1ccc(C(=O)NC[C@H](NC(=O)c2cccc(-c3cccs3)n2)C(=O)N[C@@H](CC(C)C)B(O)O)cc1` [L.2.21], the melting point is 158 to 160 °C.
